Data on 7 compounds can be found in ChEMBL document CHEMBL1201862, “PubChem BioAssay data set” (2004).

Test systems include HOP-92; HCT-116; MCF7; K562; MOLT-4; CCRF-CEM; NCI-H23; BT-549; HL-60; DU-145; SF-295; M14; UACC-62; Malme-3M; Hs-578T; SNB-75; 786-0; IGROV-1; ACHN; PC-3.
What all share (test): NCI anticancer screen, dose series, 48 h

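Values below derive from 48-hour exposures of cells grown in 96-well plates, with endpoints linearly interpolated between the two concentrations bracketing the appropriate inhibition level. GI50 = concentration required for 50% inhibition of growth.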 Active and inactive are the calls of the source. Cut-off read from the data, not from the text of the source: active = GI50 up to about 1.1 µM and inactive = higher.

For the compound `CC(C(=O)O)C1Nc2ccccc2NC1=O` (stereo not given), the GI50 in the assay on HOP-92 was > 100 µM (inactive); with HCT-116, > 100 µM (inactive); with MCF7 it was > 100 µM (inactive); in the assay on K562 it was > 100 µM (inactive); with MOLT-4 it was 25.2 µM (inactive); in the assay with CCRF-CEM, 14.2 µM (inactive). In addition, the GI50 in the assay on NCI-H23 is > 100 µM (inactive); in the assay with BT-549, > 100 µM (inactive); with HL-60, 23.3 µM (inactive); with DU-145, > 100 µM (inactive); in the assay on SF-295 it was > 100 µM (inactive); in the assay with M14 it was > 100 µM (inactive). Further, the GI50 in the assay with UACC-62, in the assay with Malme-3M, in the assay on Hs-578T, in the assay with SNB-75, in the assay on 786-0 and in the assay on IGROV-1 was > 100 µM (inactive) each time. Besides, the GI50 in the assay with ACHN and with PC-3 was > 100 µM (inactive) in each case.

For the compound `COc1cc(CN2CCCCC2)cc2cc(C(=O)O)c(=O)oc12`, the GI50 in the assay on HOP-92, with HCT-116, with MCF7, with K562, with MOLT-4 and with CCRF-CEM was > 100 µM (inactive) in each case. Moreover, the GI50 with NCI-H23, with BT-549, in the assay on HL-60, in the assay on DU-145, in the assay with SF-295 and with M14 was > 100 µM (inactive) throughout. The GI50 in the assay with UACC-62, in the assay with Malme-3M, in the assay on Hs-578T, in the assay on SNB-75, in the assay with 786-0 and in the assay on IGROV-1 was > 100 µM (inactive) in each case. In addition, the GI50 in the assay on ACHN and with PC-3 was > 100 µM (inactive) in each case.

Regarding `CC[C@@H]1/C=C/C=C/C[C@H](C)[C@@H](O)[C@@H](C)C(=O)[C@H](C)[C@@H](O)[C@H](C)C(=O)[C@H](C)[C@@H](O)[C@H](C)/C=C/C(=O)O[C@H]2[C@@H](C)[C@@H](CC1)O[C@@]1(CC[C@@H](C)[C@@H](CC(C)O)O1)[C@@H]2C` (stereo not given in full), the GI50 was 3.25 µM (inactive) in the assay on HOP-92; 2.58 µM (inactive) with HCT-116; 0.00269 µM (active) in the assay on MCF7; 0.00504 µM (active) with K562; 0.815 µM (active) with MOLT-4; 1.75 µM (inactive) in the assay on CCRF-CEM. Further, the GI50 was 0.00361 µM (active) in the assay on NCI-H23; 4.32 µM (inactive) in the assay with BT-549; 0.00847 µM (active) in the assay on HL-60; 3.37 µM (inactive) with DU-145; < 0.0025 µM (active) with SF-295; 2.47 µM (inactive) in the assay on M14. The GI50 in the assay on UACC-62 is 3.32 µM (inactive); in the assay with Malme-3M it was 6.34 µM (inactive); in the assay on Hs-578T, 6.03 µM (inactive); in the assay on SNB-75, 0.253 µM (active); in the assay on 786-0, 5.9 µM (inactive); in the assay with IGROV-1, 4.48 µM (inactive). For the same compound, the GI50 is 0.17 µM (active) with ACHN and 0.00678 µM (active) with PC-3.

As for `CC(C)Oc1cc2c(cc1O)CC[C@@H]1[C@@H]2CC[C@]2(C)[C@@H](O)CC[C@@H]12`, the GI50 was 11.2 µM (inactive) in the assay with HOP-92; 3.33 µM (inactive) with HCT-116; 2.25 µM (inactive) with MCF7; 1.51 µM (inactive) with K562; 4.74 µM (inactive) with MOLT-4; 2.9 µM (inactive) in the assay on CCRF-CEM. The GI50 in the assay with NCI-H23 is 7.19 µM (inactive); with BT-549 it was 5.71 µM (inactive); in the assay with HL-60, 1.71 µM (inactive); in the assay on DU-145, 7.28 µM (inactive); in the assay with SF-295, 3 µM (inactive); with M14, 3.79 µM (inactive). The GI50 is 2 µM (inactive) in the assay with UACC-62; 3.82 µM (inactive) in the assay with Malme-3M; 2.38 µM (inactive) with Hs-578T; 4.69 µM (inactive) in the assay on SNB-75; 4.65 µM (inactive) in the assay on 786-0; 6.14 µM (inactive) in the assay with IGROV-1. Moreover, the figures for the GI50 in the assay with ACHN and in the assay on PC-3 were 9.89 µM (inactive) and 8.97 µM (inactive), respectively.

Turning to `Nc1ncn(C2OC(COP(=O)(O)O)C(O)C2O)c(=O)n1` (stereo not given), the GI50 was > 100 µM (inactive) in the assay on HOP-92; 75.9 µM (inactive) with HCT-116; > 71 µM (inactive) in the assay on MCF7; > 90.8 µM (inactive) with K562; 2.39 µM (inactive) with MOLT-4; 1.87 µM (inactive) in the assay with CCRF-CEM. Also, the GI50 in the assay with NCI-H23 was > 81.8 µM (inactive); in the assay with BT-549, > 100 µM (inactive); in the assay on HL-60 it was > 64.4 µM (inactive); in the assay with DU-145 it was > 100 µM (inactive); in the assay on SF-295, > 100 µM (inactive); in the assay with M14, > 100 µM (inactive). Besides, the GI50 in the assay with UACC-62 is > 100 µM (inactive); with Malme-3M it was > 81.8 µM (inactive); with Hs-578T it was > 100 µM (inactive); in the assay on SNB-75, > 100 µM (inactive); with 786-0, > 86.3 µM (inactive); with IGROV-1, > 100 µM (inactive). Besides, the GI50 in the assay on ACHN was 54.6 µM (inactive); with PC-3, > 100 µM (inactive).

On to `Cc1ccc(C2SC(=N)Nc3c2c(C)nn3C(=O)c2ccncc2)cc1` (stereo not given), for which the GI50 in the assay on HOP-92, with HCT-116, with MCF7, with K562, with MOLT-4 and with CCRF-CEM was > 10 µM (inactive) each time. For the same compound, the GI50 with NCI-H23, with BT-549, with HL-60, in the assay on DU-145, with SF-295 and in the assay with M14 was > 10 µM (inactive) in each case. Further, the GI50 with UACC-62, in the assay on Malme-3M, in the assay with Hs-578T, with SNB-75, with 786-0 and in the assay on IGROV-1 was > 10 µM (inactive) each time. In addition, the GI50 in the assay on ACHN and in the assay on PC-3 was > 10 µM (inactive) throughout.

`Cc1cc(C)nc(SCC(=O)OC2CC(C)CCC2C(C)C)n1` (stereo not given): the GI50 in the assay with HOP-92 was 26 µM (inactive); with HCT-116, 19.2 µM (inactive); in the assay with MCF7 it was 23.3 µM (inactive); in the assay with K562, 20 µM (inactive); in the assay on MOLT-4 it was 16.7 µM (inactive); in the assay with CCRF-CEM it was 16.6 µM (inactive). For the same compound, the GI50 with NCI-H23 was 24.8 µM (inactive); in the assay on BT-549 it was 45.9 µM (inactive); with HL-60 it was 19.1 µM (inactive); in the assay with DU-145, 34.3 µM (inactive); in the assay with SF-295 it was 14.6 µM (inactive); in the assay with M14, 16.7 µM (inactive). Also, the GI50 with UACC-62 is 14.6 µM (inactive); in the assay with Malme-3M, 21.6 µM (inactive); in the assay with Hs-578T, 33.4 µM (inactive); in the assay on SNB-75 it was 21 µM (inactive); in the assay with 786-0 it was 21.6 µM (inactive); in the assay with IGROV-1, 20.6 µM (inactive). In addition, the GI50 with ACHN was 18.7 µM (inactive); with PC-3 it was 28.3 µM (inactive).
